# Laboratory results taken from ChEMBL document CHEMBL3046521, “Synthesis and antitumor activity of (4-hydroxyphenyl)[5-substituted alkyl/aryl)-2-thioxo-1,3,4-thiadiazol-3-yl]methanone and [(3,4-disubstituted)-1,3-thiazol-2ylidene]-4-hydroxybenzohydrazide” (2011).
# Tests used:
# Type in all cases: functional
# HCT-116 = test: Cytotoxicity against Homo sapiens (human) HCT116 cells after 48 hr by sulforhodamine B assay; conditions: HCT-116, 48 h; for TGI: read-out: pTGI (converted)
# HCC 2998 = test: Cytotoxicity against Homo sapiens (human) HCC2998 cells after 48 hr by sulforhodamine B assay; conditions: HCC 2998, 48 h; for TGI: read-out: pTGI (converted)
# NCI-H522 = test: Cytotoxicity against Homo sapiens (human) NCI-H522 cells after 48 hr by sulforhodamine B assay; conditions: NCI-H522, 48 h; for TGI: read-out: pTGI (converted)
# NCI-H322M = test: Cytotoxicity against Homo sapiens (human) NCI-H322M cells after 48 hr by sulforhodamine B assay; conditions: for TGI: read-out: pTGI (converted)
# HOP-92 = test: Cytotoxicity against Homo sapiens (human) HOP92 cells after 48 hr by sulforhodamine B assay; conditions: HOP-92, 48 h; for TGI: read-out: pTGI (converted)
# A549 = test: Cytotoxicity against Homo sapiens (human) A549 cells after 48 hr by sulforhodamine B assay; conditions: A549, 48 h; for TGI: read-out: pTGI (converted)
# MOLT-4 = test: Cytotoxicity against Homo sapiens (human) MOLT4 cells after 48 hr by sulforhodamine B assay; conditions: MOLT-4, 48 h; for TGI: read-out: pTGI (converted)
# K562 = test: Cytotoxicity against Homo sapiens (human) K562 cells after 48 hr by sulforhodamine B assay; conditions: K562, 48 h; for TGI: read-out: pTGI (converted)
# CCRF-CEM = test: Cytotoxicity against Homo sapiens (human) CCRF-CEM cells after 48 hr by sulforhodamine B assay; conditions: for TGI: read-out: pTGI
# MDA-MB-468 = test: Cytotoxicity against Homo sapiens (human) MDA-MB-468 cells after 48 hr by sulforhodamine B assay; conditions: MDA-MB-468, 48 h; for TGI: read-out: pTGI (converted)
# BT-549 = test: Cytotoxicity against Homo sapiens (human) BT549 cells after 48 hr by sulforhodamine B assay; conditions: BT-549, 48 h; for TGI: read-out: pTGI (converted)
# MCF7 = test: Cytotoxicity against Homo sapiens (human) MCF7 cells after 48 hr by sulforhodamine B assay; conditions: MCF7, 48 h; for TGI: read-out: pTGI (converted)
# MDA-MB-231 = test: Cytotoxicity against Homo sapiens (human) MDA-MB-231 cells after 48 hr by sulforhodamine B assay; conditions: MDA-MB-231, 48 h; for TGI: read-out: pTGI (converted)
# UO-31 = test: Cytotoxicity against Homo sapiens (human) UO31 cells after 48 hr by sulforhodamine B assay; conditions: UO-31, 48 h; for TGI: read-out: pTGI
# SN12C = test: Cytotoxicity against Homo sapiens (human) SN12C cells after 48 hr by sulforhodamine B assay; conditions: for TGI: read-out: pTGI (converted)
# TK-10 = test: Cytotoxicity against Homo sapiens (human) TK10 cells after 48 hr by sulforhodamine B assay; conditions: TK-10, 48 h; for TGI: read-out: pTGI (converted)
# RXF 393 = test: Cytotoxicity against Homo sapiens (human) RXF393 cells after 48 hr by sulforhodamine B assay; conditions: RXF 393, 48 h; for TGI: read-out: pTGI (converted)
# CAKI-1 = test: Cytotoxicity against Homo sapiens (human) Caki1 cells after 48 hr by sulforhodamine B assay; conditions: CAKI-1, 48 h; for TGI: read-out: pTGI (converted)
# SK-OV-3 = test: Cytotoxicity against Homo sapiens (human) SKOV3 cells after 48 hr by sulforhodamine B assay; conditions: SK-OV-3, 48 h; for TGI: read-out: pTGI (converted)
# OVCAR-5 = test: Cytotoxicity against Homo sapiens (human) OVCAR5 cells after 48 hr by sulforhodamine B assay; conditions: OVCAR-5, 48 h; for TGI: read-out: pTGI (converted)
# OVCAR-4 = test: Cytotoxicity against Homo sapiens (human) OVCAR4 cells after 48 hr by sulforhodamine B assay; conditions: OVCAR-4, 48 h; for TGI: read-out: pTGI (converted)
# OVCAR-3 = test: Cytotoxicity against Homo sapiens (human) OVCAR3 cells after 48 hr by sulforhodamine B assay; conditions: OVCAR-3, 48 h; for TGI: read-out: pTGI (converted)
# IGROV-1 = test: Cytotoxicity against Homo sapiens (human) IGROV1 cells after 48 hr by sulforhodamine B assay; conditions: IGROV-1, 48 h; for TGI: read-out: pTGI (converted)
# UACC-62 = test: Cytotoxicity against Homo sapiens (human) UACC62 cells after 48 hr by sulforhodamine B assay; conditions: UACC-62, 48 h; for TGI: read-out: pTGI (converted)
# SK-MEL-5 = test: Cytotoxicity against Homo sapiens (human) SK-MEL-5 cells after 48 hr by sulforhodamine B assay; conditions: SK-MEL-5, 48 h; for TGI: read-out: pTGI (converted)
# SK-MEL-2 = test: Cytotoxicity against Homo sapiens (human) SK-MEL-2 cells after 48 hr by sulforhodamine B assay; conditions: SK-MEL-2, 48 h; for TGI: read-out: pTGI (converted)
# MDA-MB-435 = test: Cytotoxicity against Homo sapiens (human) MDA-MB-435 cells after 48 hr by sulforhodamine B assay; conditions: MDA-MB-435, 48 h; for TGI: read-out: pTGI (converted)
# SF-539 = test: Cytotoxicity against Homo sapiens (human) SF539 cells after 48 hr by sulforhodamine B assay; conditions: SF-539, 48 h; for TGI: read-out: pTGI (converted)
# SF-268 = test: Cytotoxicity against Homo sapiens (human) SF268 cells after 48 hr by sulforhodamine B assay; conditions: SF-268, 48 h; for TGI: read-out: pTGI (converted)
# SW-620 = test: Cytotoxicity against Homo sapiens (human) SW620 cells after 48 hr by sulforhodamine B assay; conditions: SW-620, 48 h; for TGI: read-out: pTGI (converted)
compound,measurement,setting,value
COc1ccc(-c2cs/c(=N\NC(=O)c3ccc(O)cc3)n2-c2ccc(OC)cc2OC)cc1,GI50,HCT-116,5.13 µM
same,LC50,HCT-116,> 100 µM
same,TGI,HCT-116,28.2 µM
same,GI50,HCC 2998,1.95 µM
same,LC50,HCC 2998,53.7 µM
same,TGI,HCC 2998,5.25 µM
same,GI50,NCI-H522,2.57 µM
same,LC50,NCI-H522,> 100 µM
same,TGI,NCI-H522,20 µM
same,GI50,NCI-H322M,22.9 µM
same,LC50,NCI-H322M,> 100 µM
same,TGI,NCI-H322M,> 100 µM
same,GI50,HOP-92,3.31 µM
same,LC50,HOP-92,> 100 µM
same,TGI,HOP-92,37.2 µM
same,GI50,A549,6.03 µM
same,LC50,A549,> 100 µM
same,TGI,A549,> 100 µM
same,GI50,MOLT-4,1.2 µM
same,LC50,MOLT-4,> 100 µM
same,TGI,MOLT-4,23.4 µM
same,GI50,K562,2.19 µM
same,LC50,K562,> 100 µM
same,TGI,K562,> 100 µM
same,GI50,CCRF-CEM,9.77 µM
same,LC50,CCRF-CEM,> 100 µM
same,TGI,CCRF-CEM,> 100 µM
same,GI50,MDA-MB-468,3.89 µM
same,LC50,MDA-MB-468,> 100 µM
same,TGI,MDA-MB-468,> 100 µM
same,GI50,BT-549,14.1 µM
same,LC50,BT-549,> 100 µM
same,TGI,BT-549,69.2 µM
same,GI50,MCF7,3.72 µM
same,LC50,MCF7,> 100 µM
same,TGI,MCF7,28.8 µM
same,GI50,MDA-MB-231,3.16 µM
same,LC50,MDA-MB-231,> 100 µM
same,TGI,MDA-MB-231,20 µM
same,GI50,UO-31,4.68 µM
same,LC50,UO-31,> 100 µM
same,TGI,UO-31,> 100 µM
same,GI50,SN12C,6.61 µM
same,LC50,SN12C,> 100 µM
same,TGI,SN12C,57.5 µM
same,GI50,TK-10,13.5 µM
same,LC50,TK-10,> 100 µM
same,TGI,TK-10,75.9 µM
same,GI50,RXF 393,5.37 µM
same,LC50,RXF 393,> 100 µM
same,TGI,RXF 393,> 100 µM
same,GI50,CAKI-1,3.31 µM
same,LC50,CAKI-1,> 100 µM
same,TGI,CAKI-1,52.5 µM
same,GI50,SK-OV-3,15.1 µM
same,LC50,SK-OV-3,> 100 µM
same,TGI,SK-OV-3,100 µM
same,GI50,OVCAR-5,6.92 µM
same,LC50,OVCAR-5,> 100 µM
same,TGI,OVCAR-5,38 µM
same,GI50,OVCAR-4,10.2 µM
same,LC50,OVCAR-4,> 100 µM
same,TGI,OVCAR-4,> 100 µM
same,GI50,OVCAR-3,3.8 µM
same,LC50,OVCAR-3,95.5 µM
same,TGI,OVCAR-3,17 µM
same,GI50,IGROV-1,7.94 µM
same,LC50,IGROV-1,> 100 µM
same,TGI,IGROV-1,> 100 µM
same,GI50,UACC-62,4.47 µM
same,LC50,UACC-62,85.1 µM
same,TGI,UACC-62,22.9 µM
same,GI50,SK-MEL-5,5.37 µM
same,LC50,SK-MEL-5,52.5 µM
same,TGI,SK-MEL-5,19.5 µM
same,GI50,SK-MEL-2,4.9 µM
same,LC50,SK-MEL-2,> 100 µM
same,TGI,SK-MEL-2,72.4 µM
same,GI50,MDA-MB-435,2.88 µM
same,LC50,MDA-MB-435,> 100 µM
same,TGI,MDA-MB-435,22.9 µM
same,GI50,SF-539,5.13 µM
same,LC50,SF-539,63.1 µM
same,TGI,SF-539,20.4 µM
same,GI50,SF-268,5.75 µM
same,LC50,SF-268,> 100 µM
same,TGI,SF-268,60.3 µM
same,GI50,SW-620,4.37 µM
same,LC50,SW-620,> 100 µM
same,TGI,SW-620,43.7 µM
Cc1ccc(-c2cs/c(=N\NC(=O)c3ccc(O)cc3)n2-c2c(C)cccc2C)cc1,GI50,HCT-116,22.9 µM
same,LC50,HCT-116,> 100 µM
same,TGI,HCT-116,> 100 µM
same,GI50,HCC 2998,15.5 µM
same,LC50,HCC 2998,> 100 µM
same,TGI,HCC 2998,43.7 µM
same,GI50,NCI-H522,20.9 µM
same,LC50,NCI-H522,> 100 µM
same,TGI,NCI-H522,> 100 µM
same,GI50,NCI-H322M,35.5 µM
same,LC50,NCI-H322M,> 100 µM
same,TGI,NCI-H322M,> 100 µM
same,GI50,HOP-92,1.32 µM
same,LC50,HOP-92,> 100 µM
same,TGI,HOP-92,26.3 µM
same,GI50,A549,23.4 µM
same,LC50,A549,> 100 µM
same,TGI,A549,> 100 µM
same,GI50,MOLT-4,13.5 µM
same,LC50,MOLT-4,> 100 µM
same,TGI,MOLT-4,57.5 µM
same,GI50,K562,11.5 µM
same,LC50,K562,> 100 µM
same,TGI,K562,79.4 µM
same,GI50,CCRF-CEM,33.1 µM
same,LC50,CCRF-CEM,> 100 µM
same,TGI,CCRF-CEM,> 100 µM
same,GI50,MDA-MB-468,12 µM
same,LC50,MDA-MB-468,> 100 µM
same,TGI,MDA-MB-468,> 100 µM
same,GI50,BT-549,21.9 µM
same,LC50,BT-549,> 100 µM
same,TGI,BT-549,> 100 µM
same,GI50,MCF7,23.4 µM
same,LC50,MCF7,> 100 µM
same,TGI,MCF7,95.5 µM
same,GI50,MDA-MB-231,18.2 µM
same,LC50,MDA-MB-231,> 100 µM
same,TGI,MDA-MB-231,> 100 µM
same,GI50,UO-31,9.55 µM
same,LC50,UO-31,> 100 µM
same,TGI,UO-31,> 100 µM
same,GI50,SN12C,25.7 µM
same,LC50,SN12C,> 100 µM
same,TGI,SN12C,> 100 µM
same,GI50,TK-10,19.1 µM
same,LC50,TK-10,> 100 µM
same,TGI,TK-10,83.2 µM
same,GI50,RXF 393,38 µM
same,LC50,RXF 393,> 100 µM
same,TGI,RXF 393,> 100 µM
same,GI50,CAKI-1,10.5 µM
same,LC50,CAKI-1,> 100 µM
same,TGI,CAKI-1,> 100 µM
same,GI50,SK-OV-3,30.9 µM
same,LC50,SK-OV-3,> 100 µM
same,TGI,SK-OV-3,> 100 µM
same,GI50,OVCAR-5,28.2 µM
same,LC50,OVCAR-5,> 100 µM
same,TGI,OVCAR-5,> 100 µM
same,GI50,OVCAR-4,18.6 µM
same,LC50,OVCAR-4,> 100 µM
same,TGI,OVCAR-4,> 100 µM
same,GI50,OVCAR-3,17.8 µM
same,LC50,OVCAR-3,> 100 µM
same,TGI,OVCAR-3,47.9 µM
same,GI50,IGROV-1,20 µM
same,LC50,IGROV-1,> 100 µM
same,TGI,IGROV-1,> 100 µM
same,GI50,UACC-62,16.6 µM
same,LC50,UACC-62,> 100 µM
same,TGI,UACC-62,95.5 µM
same,GI50,SK-MEL-5,14.5 µM
same,LC50,SK-MEL-5,61.7 µM
same,TGI,SK-MEL-5,30.2 µM
same,GI50,SK-MEL-2,30.2 µM
same,LC50,SK-MEL-2,> 100 µM
same,TGI,SK-MEL-2,95.5 µM
same,GI50,MDA-MB-435,16.6 µM
same,LC50,MDA-MB-435,> 100 µM
same,TGI,MDA-MB-435,85.1 µM
same,GI50,SF-539,21.9 µM
same,LC50,SF-539,> 100 µM
same,TGI,SF-539,> 100 µM
same,GI50,SF-268,23.4 µM
same,LC50,SF-268,> 100 µM
same,TGI,SF-268,> 100 µM
same,GI50,SW-620,28.8 µM
same,LC50,SW-620,> 100 µM
same,TGI,SW-620,> 100 µM
